Laboratory results reported in ChEMBL document CHEMBL5042471, “Development and Application of Subtype-Selective Fluorescent Antagonists for the Study of the Human Adenosine A1 Receptor in Living Cells” (J Med Chem, 2021).

What was measured:
Adenosine receptor A1 [1] = target: T1, Adenosine receptor A1 (Homo sapiens, UniProt P30542); assay: Displacement of [3H]DPCPX from human A1 adenosine receptor expressed in Flp-In-CHO cells by radioligand competitive binding assay; type: cell-based
T1 sequence (P30542 whole entry): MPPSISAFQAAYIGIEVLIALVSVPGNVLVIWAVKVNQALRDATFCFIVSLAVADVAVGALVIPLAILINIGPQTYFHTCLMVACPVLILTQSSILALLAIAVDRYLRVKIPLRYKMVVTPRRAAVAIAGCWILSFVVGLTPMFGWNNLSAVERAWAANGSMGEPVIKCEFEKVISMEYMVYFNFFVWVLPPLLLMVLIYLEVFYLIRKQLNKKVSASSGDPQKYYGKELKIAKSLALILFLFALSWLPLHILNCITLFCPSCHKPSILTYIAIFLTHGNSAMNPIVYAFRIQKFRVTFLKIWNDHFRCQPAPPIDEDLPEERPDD

Adenosine receptor A1 [2] = target: T1, Adenosine receptor A1; assay: biochemical
Description: Displacement of [3H]DPCPX from human A1 adenosine receptor expressed in CHO-K1 cells by radioligand binding assay

SMILES: CCCn1c(=O)c2[nH]c(C34CCC(C(=O)NCCNC(=O)CCCCC[N+]5=C(/C=C/C=C/C=C6/N(C)c7ccc(S(=O)(=O)O)cc7C6(C)C)C(C)(C)c6cc(S(=O)(=O)[O-])ccc65)(CC3)CC4)nc2n(CCC)c1=O
- Ki (Adenosine receptor A1 [1]): 0.851 µM

SMILES: CCCn1c(=O)c2[nH]c(C34CCC(C(=O)NCCNC(=O)CCNC(=O)CCNC(=O)OC(C)(C)C)(CC3)CC4)nc2n(CCC)c1=O
- Ki (Adenosine receptor A1 [1]): 0.00437 µM

SMILES: CCCn1c(=O)c2[nH]c(C34CCC(C(=O)NCCNC(=O)COCCNC(=O)OC(C)(C)C)(CC3)CC4)nc2n(CCC)c1=O
- Ki (Adenosine receptor A1 [1]): 0.0138 µM

SMILES: CCCn1c(=O)c2[nH]c(C34CCC(C(=O)NCCNC(=O)COCCOCCNC(=O)OC(C)(C)C)(CC3)CC4)nc2n(CCC)c1=O
- Ki (Adenosine receptor A1 [1]): 0.0174 µM

SMILES: O[C@H]1CC[C@H](Nc2nc(-c3ccccc3)nc3[nH]ccc23)CC1
- Ki (Adenosine receptor A1 [1]): 0.0017 µM
- Ki (Adenosine receptor A1 [2]): 0.001 µM

SMILES: CCCn1c(=O)c2[nH]c(C34CCC(C(=O)NCCNC(=O)CCCCCNC(=O)COc5ccc(/C=C/C6=[N+]7C(=Cc8ccc(-c9cccs9)n8[B-]7(F)F)C=C6)cc5)(CC3)CC4)nc2n(CCC)c1=O
- Ki (Adenosine receptor A1 [1]): 0.0204 µM

SMILES: CCCn1c(=O)c2[nH]c(C34CCC(CCC(=O)NCCNC(=O)COCCNC(=O)OC(C)(C)C)(CC3)CC4)nc2n(CCC)c1=O
- Ki (Adenosine receptor A1 [1]): 0.0148 µM

SMILES: CCCn1c(=O)c2[nH]c(C34CC5CC(CC(C5)C3)C4)nc2n(CCCNC(=O)c2ccc(C(=O)NCCNC(=O)CCCCC[N+]3=C(/C=C/C=C/C=C4/N(C)c5ccc(S(=O)(=O)O)cc5C4(C)C)C(C)(C)c4cc(S(=O)(=O)[O-])ccc43)cc2)c1=O
- Ki (Adenosine receptor A1 [1]): > 10 µM

SMILES: CCCn1c(=O)c2[nH]c(C34CCC(C(=O)NCCC(=O)NCCNC(=O)COCCNC(=O)OC(C)(C)C)(CC3)CC4)nc2n(CCC)c1=O
- Ki (Adenosine receptor A1 [1]): 0.0112 µM

SMILES: CCCn1c(=O)c2[nH]c(C34CC5CC(CC(C5)C3)C4)nc2n(CCCNC(=O)c2ccc(C(=O)NCCNC(=O)CCCCCNC(=O)COc3ccc(/C=C/C4=[N+]5C(=Cc6ccc(-c7cccs7)n6[B-]5(F)F)C=C4)cc3)cc2)c1=O
- Ki (Adenosine receptor A1 [1]): 0.00589 µM

SMILES: CCCn1c(=O)c2[nH]c(C34CC5CC(CC(C5)C3)C4)nc2n(CCCNC(=O)c2ccc(C(=O)NCCNC(=O)CCNC(=O)CCCCC[N+]3=C(/C=C/C=C/C=C4/N(C)c5ccc(S(=O)(=O)O)cc5C4(C)C)C(C)(C)c4cc(S(=O)(=O)[O-])ccc43)cc2)c1=O
- Ki (Adenosine receptor A1 [1]): > 10 µM
